The results in this text go back to patent US7160888B2, “[1,8]naphthyridin-2-ones and related compounds for the treatment of schizophrenia” (Warner Lambert Company LLC, priority 2003, dated 2007).

A word on the Emax: it is the maximal effect, on the per cent scale that the assay sets.

The target of one assay is D2 receptor (Homo sapiens, UniProt P14416). The assay is described as follows: [3H]Thymidine uptake assay for D2 intrinsic activity. In kind it is cell-based. The settings on record: Table 1; test compound 1 μM; 1 μM Quinpirole = 100% intrinsic activity.
Chain of D2 receptor (P14416 whole entry): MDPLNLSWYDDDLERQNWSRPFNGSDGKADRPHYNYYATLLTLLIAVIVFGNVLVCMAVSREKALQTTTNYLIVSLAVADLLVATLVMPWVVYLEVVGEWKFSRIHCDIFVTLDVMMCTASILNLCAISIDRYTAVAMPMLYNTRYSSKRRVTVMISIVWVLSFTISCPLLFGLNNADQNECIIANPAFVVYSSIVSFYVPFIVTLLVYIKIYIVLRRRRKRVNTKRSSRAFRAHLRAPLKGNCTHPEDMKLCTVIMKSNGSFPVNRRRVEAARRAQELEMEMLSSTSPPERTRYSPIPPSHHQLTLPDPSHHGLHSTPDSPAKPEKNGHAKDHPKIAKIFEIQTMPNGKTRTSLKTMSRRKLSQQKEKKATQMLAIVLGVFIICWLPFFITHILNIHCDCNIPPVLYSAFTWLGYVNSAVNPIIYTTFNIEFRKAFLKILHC
For `O=c1ccc2cnc(OCCCCN3CCN(c4cccc5ccccc45)CC3)nc2[nH]1` [Example H4, 2-[4-(4-Naphthalen-1-yl-piperazin-1-yl)-butoxy]-8H-pyrido[2,3-d]pyrimidin-7-one], the Emax at 1 µM was determined as 38%. Turning to `CC(CCCN1CCN(c2cccc3ccccc23)CC1)Oc1ccc2c(n1)NC(=O)CC2` (centres unmarked) [Example C6, 7-[1-Methyl-4-(4-naphthalen-1-yl-piperazin-1-yl)-butoxy]-3,4-dihydro-1H-[1,8]naphthyridin-2-one], the Emax at 1 µM is 44%.

In the case of `O=C1CCc2ccc(OCCCCN3CCN(c4cccc5c4CCCCC5)CC3)nc2N1` [Example A63, 7-{4-[4-(6,7,8,9-Tetrahydro-5H-benzocyclohepten-1-yl)-piperazin-1-yl]-butoxy}-3,4-dihydro-1H-[1,8]naphthyridin-2-one], the Emax at 1 µM was 4%. Compound `COc1cccc(N2CCN(CCCCOc3ccc4ccc(=O)[nH]c4n3)CC2)c1C` [Example B27, 7-{4-[4-(3-Methoxy-2-methyl-phenyl)-piperazin-1-yl]-butoxy}-1H-[1,8]naphthyridin-2-one] showed an Emax at 1 µM of 47%. Consider `O=C1COc2ccc(OCCCCN3CCN(c4cccc(Cl)c4Cl)CC3)nc2N1` [Example G3, 6-{4-[4-(2,3-Dichloro-phenyl)-piperazin-1-yl]-butoxy}-4H-pyrido[3,2-b][1,4]oxazin-3-one], for which the Emax at 1 µM was 25%. `CN1Cc2ccc(OCCCCN3CCN(c4cccc5ccccc45)CC3)nc2NC1=O` [Example F8, 3-Methyl-7-[4-(4-naphthalen-1-yl-piperazin-1-yl)-butoxy]-3,4-dihydro-1H-pyrido[2,3-d]pyrimidin-2-one] came in with an Emax at 1 µM of 15%. Regarding `O=c1ccc2ccc(OCCCCN3CCN(c4cccc5cccc(Cl)c45)CC3)nc2[nH]1` [Example B59, 7-{4-[4-(8-Chloro-naphthalen-1-yl)-piperazin-1-yl]-butoxy}-1H-[1,8]naphthyridin-2-one], the Emax at 1 µM was 37%. On the same count and under the same terms, the same measure for `O=C1CCc2c(C(F)(F)F)cc(OCCCCN3CCN(c4cccc5c4CCC5)CC3)nc2N1` [Example E13, 7-[4-(4-Indan-4-yl-piperazin-1-yl)-butoxy]-5-trifluoromethyl-3,4-dihydro-1H-[1,8]naphthyridin-2-one]: 11%. For the compound `CC(C)Oc1ccccc1N1CCN(CCCCOc2ccc3c(n2)NC(=O)CC3)CC1` [Example A26, 7-{4-[4-(2-Isopropoxy-phenyl)-piperazin-1-yl]-butoxy}-3,4-dihydro-1H-[1,8]naphthyridin-2-one], the Emax at 1 µM was found to be 33%. Compound `O=C1CCc2ccc(OCCCCN3CCN(c4cccc5c4CC(F)(F)C5)CC3)nc2N1` [Example A62, 7-{4-[4-(2,2-Difluoro-indan-4-yl)-piperazin-1-yl]-butoxy}-3,4-dihydro-1H-[1,8]naphthyridin-2-one] returned an Emax at 1 µM of 27%. In the case of `N#Cc1ccc2cccc(N3CCN(CCCCOc4ccc5ccc(=O)[nH]c5n4)CC3)c2c1` [Example B67, 8-{4-[4-(7-Oxo-7,8-dihydro-[1,8]naphthyridin-2-yloxy)-butyl]-piperazin-1-yl}-naphthalene-2-carbonitrile], the Emax at 1 µM was 39%. `Cc1cccc(N2CCN(CCCCCc3ccc4c(n3)NC(=O)CC4)CC2)n1` [Example C16, 7-{5-[4-(6-Methyl-pyridin-2-yl)-piperazin-1-yl]-pentyl}-3,4-dihydro-1H-[1,8]naphthyridin-2-one] yielded an Emax at 1 µM of 34%. `O=C1CCc2ccc(CCCCCN3CCN(c4cccc5ccccc45)CC3)nc2N1` [Example C13, 7-[5-(4-Naphthalen-1-yl-piperazin-1-yl)-pentyl]-3,4-dihydro-1H-[1,8]naphthyridin-2-one] came in with an Emax at 1 µM of 14%. As to `O=c1ccc2cnc(OCCCCN3CCN(c4cccc5c4CCC5)CC3)nc2[nH]1` [Example H3, 2-[4-(4-Indan-4-yl-piperazin-1-yl)-butoxy]-8H-pyrido[2,3-d]pyrimidin-7-one], the Emax at 1 µM is 25%. Turning to `CC1CC(=O)Nc2nc(OCCCCN3CCN(c4cccc(Cl)c4Cl)CC3)ccc21` (single isomer, unassigned) [Example D2a, 7-{4-[4-(2,3-Dichloro-phenyl)-piperazin-1-yl]-butoxy}-4-methyl-3,4-dihydro-1H-[1,8]naphthyridin-2-one], the maximal response (Emax) at 1 µM amounted to 20%. For `O=C1CCc2ccc(CCCCCN3CCN(c4cccc(C5CC5)n4)CC3)nc2N1` [Example C18, 7-{5-[4-(6-Cyclopropyl-pyridin-2-yl)-piperazin-1-yl]-pentyl}-3,4-dihydro-1H-[1,8]naphthyridin-2-one], the Emax at 1 µM came to 34%. In turn, `Cc1c(F)ccc(N2CCN(CCCCOc3ccc4c(n3)NC(=O)CC4)CC2)c1Cl` [Example A15, 7-{4-[4-(2-Chloro-4-fluoro-3-methyl-phenyl)-piperazin-1-yl]-butoxy}-3,4-dihydro-1H-[1,8]naphthyridin-2-one] gave an Emax at 1 µM of 4%.

For the compound `O=C1CCc2cnc(OCCCCN3CCN(c4cccc5ccccc45)CC3)cc2N1` [Example I3, 7-[4-(4-Naphthalen-1-yl-piperazin-1-yl)-butoxy]-3,4-dihydro-1H-[1,6]naphthyridin-2-one], the Emax at 1 µM amounted to 33%. As to `CC(=O)c1ccc2c(N3CCN(CCCCOc4ccc5c(n4)NC(=O)CC5)CC3)cccc2c1` [Example A79, 7-{4-[4-(6-Acetyl-napthalen-1-yl)-piperazin-1-yl]-butoxy}-3,4-dihydro-1H-[1,8]naphthyridin-2-one], the Emax at 1 µM is 24%. Still for that read-out and setting: as for `O=C1CCc2cnc(CCCCCN3CCN(c4cccc(Cl)c4Cl)CC3)cc2N1` [Example I1, 7-{5-[4-(2,3-Dichloro-phenyl)-piperazin-1-yl]-pentyl}-3,4-dihydro-1H-[1,6]naphthyridin-2-one], the figure is 17%. For the compound `CCc1cccc(N2CCN(CCCCOc3nc(C)c4ccc(=O)[nH]c4n3)CC2)n1` [Example H7, 2-{4-[4-(6-Ethyl-pyridin-2-yl)-piperazin-1-yl]-butoxy}-4-methyl-8H-pyrido[2,3-d]pyrimidin-7-one], the Emax at 1 µM is 46%.

Staying with this assay, now noted: Table 2; test compound 1 μM; 1 μM Quinpirole = 100% intrinsic activity.
`O=C1CCc2cccc(N3CCN(CCCCOc4ccc5ccc(=O)[nH]c5n4)CC3)c2N1` [Example B37′, 7-{4-[4-(2-Oxo-1,2,3,4-tetrahydro-quinolin-8-yl)-piperazin-1-yl]-butoxy}-1H-[1,8]naphthyridin-2-one] showed an Emax at 1 µM of 39%. The same measure, in the same setting: the same measure for `Cc1nc(OCCCCN2CCN(c3cccc4cccnc34)CC2)nc2[nH]c(=O)ccc12` [Example G15′, 4-Methyl-2-[4-(4-quinolin-8-yl-piperazin-1-yl)-butoxy]-8H-pyrido[2,3-d]pyrimidin-7-one]: 41%; for `CC1(C)CCc2cccc(N3CCN(CCCCOc4ccc5c(n4)NC(=O)CC5)CC3)c2O1` [Example A6′, 7-{4-[4-(2,2-Dimethyl-chroman-8-yl)-piperazin-1-yl]-butoxy}-3,4-dihydro-1H-[1,8]naphthyridin-2-one]: 42%.

`O=c1ccc2cnc(OCCCCN3CCN(c4cccc5c4OCCCO5)CC3)nc2[nH]1` [Example G5′, 2-{4-[4-(3,4-Dihydro-2H-benzo[b][1,4]dioxepin-6-yl)-piperazin-1-yl]-butoxy}-8H-pyrido[2,3-d]pyrimidin-7-one]: the Emax at 1 µM was 7%. As to `Cc1nc(OCCCCN2CCN(c3cccc4c3NC(=O)CC4)CC2)nc2[nH]c(=O)ccc12` [Example G14′, 4-Methyl-2-{4-[4-(2-oxo-1,2,3,4-tetrahydro-quinolin-8-yl)-piperazin-1-yl]-butoxy}-8H-pyrido[2,3-d]pyrimidin-7-one], the Emax at 1 µM came to 44%. For the compound `O=C1CCc2ccc(OCCCCN3CCN(c4cccc5cc[nH]c45)CC3)nc2N1` [Example A24′, 7-{4-[4-(1H-Indol-7-yl)-piperazin-1-yl]-butoxy}-3,4-dihydro-1H-[1,8]naphthyridin-2-one], the Emax at 1 µM was found to be 6%. In turn, `CCN1CCCc2c1cccc2N1CCN(CCCCOc2ccc3c(n2)NC(=O)CC3)CC1` [Example A33′, 7-{4-[4-(1-Ethyl-1,2,3,4-tetrahydro-quinolin-5-yl)-piperazin-1-yl]-butoxy}-3,4-dihydro-1H-[1,8]naphthyridin-2-one] returned an Emax at 1 µM of 18%. On to `O=C1CCc2ccc(OCCCCN3CCN(c4cccc5c4CCO5)CC3)nc2N1` [Example A11′, 7-{4-[4-(2,3-Dihydro-benzofuran-4-yl)-piperazin-1-yl]-butoxy}-3,4-dihydro-1H-[1,8]naphthyridin-2-one], for which the Emax at 1 µM was 17%. `CC1(C)CC(=O)Nc2nc(OCCCCN3CCN(c4cccc5c4OCCC5)CC3)ccc21` [Example C6′, 7-[4-(4-Chroman-8-yl-piperazin-1-yl)-butoxy]-4,4-dimethyl-3,4-dihydro-1H-[1,8]naphthyridin-2-one] registered an Emax at 1 µM of 24%. On to `O=c1ccc2ccc(OCCCCN3CCN(c4cccc5c4OCC5)CC3)nc2[nH]1` [Example B8′, 7-{4-[4-(2,3-Dihydro-benzofuran-7-yl)-piperazin-1-yl]-butoxy}-1H-[1,8]naphthyridin-2-one], for which the maximal effect (Emax) at 1 µM was determined as 21%. Turning to `O=c1ccc2cnc(OCCCCN3CCN(c4cccc5c4OCCC5)CC3)nc2[nH]1` [Example G2′, 2-[4-(4-Chroman-8-yl-piperazin-1-yl)-butoxy]-8H-pyrido[2,3-d]pyrimidin-7-one], the Emax at 1 µM turned out to be 21%. `O=c1ccc2ccc(OCCCCN3CCN(c4cccc5ccoc45)CC3)nc2[nH]1` [Example B26′, 7-[4-(4-Benzofuran-7-yl-piperazin-1-yl)-butoxy]-1H-[1,8]naphthyridin-2-one] came in with an Emax at 1 µM of 26%. `Cc1nc(OCCCCN2CCN(c3cccc4ccoc34)CC2)nc2[nH]c(=O)ccc12` [Example G12′, 2-[4-(4-Benzofuran-7-yl-piperazin-1-yl)-butoxy]-4-methyl-8H-pyrido[2,3-d]pyrimidin-7-one] came in with an Emax at 1 µM of 36%. The same measure, in the same setting: the same measure for `O=c1ccc2ccc(OCCCCN3CCN(c4cccc5c4OCCC5)CC3)nc2[nH]1` [Example B1′, 7-[4-(4-Chroman-8-yl-piperazin-1-yl)-butoxy]-1H-[1,8]naphthyridin-2-one]: 22%.
